# Laboratory results taken from patent publication US9012152B2, “Anti-bacterial peptides and methods of treating diseases using same” (Yissum Research Development Company of the Hebrew …, priority 2007, dated 2015).
# How the values were obtained:
# [1] = Effect of pH on EDF; assay type: physicochemical; conditions: supernatant incubated at pH 3, 5, 7, 9 or 11 for 2 hours; extreme pH; readout: restoring mazEF-mediated cell death
# Description: Effect of pH on EDF: Supernatants from the “donor” cultures described above were incubated at pH 3, 5, 7, 9 or 11 for 2 hours and titrated to PH 7. Their ability to restore mazEF-mediated cell death to a diluted culture was determined as described above.
# [2] = Effect of temperature on EDF; assay type: physicochemical; conditions: supernatant incubated 10 minutes; high temperature (80° C. to 100° C.)
# Description: Effect of temperature on EDF: Supernatants from the “donor” cultures described above were incubated at 37° C., 60° C., 80° C., or 100° C. for 10 minutes and cooled to 37° C. Their ability to restore mazEF-mediated cell death to a diluted culture was determined as described above.
# [3] = target: proteinase K (Parengyodontium album, UniProt P06873); experiment: Effect of proteinase K on EDF; conditions: supernatant with proteinase K-agarose beads, 37° C., 2 hours
# proteinase K, sequence (P06873 106-384): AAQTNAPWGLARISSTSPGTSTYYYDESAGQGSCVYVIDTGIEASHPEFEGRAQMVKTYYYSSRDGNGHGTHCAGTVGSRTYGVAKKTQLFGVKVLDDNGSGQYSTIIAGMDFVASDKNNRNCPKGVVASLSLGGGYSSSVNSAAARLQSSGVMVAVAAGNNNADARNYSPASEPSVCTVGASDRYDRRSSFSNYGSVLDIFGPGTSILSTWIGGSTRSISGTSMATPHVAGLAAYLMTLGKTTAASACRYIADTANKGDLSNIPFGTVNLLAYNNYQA
# Description: Effect of proteinase K on EDF: Supernatants from the “donor” cultures described above were incubated with shaking at 37° C. for 2 hours as such or with agarose bease or with proteinase K-agarose beads. The beads were then removed by centrifugation at 14,000 rpm for 10 minutes. Their ability to restore mazEF-mediated cell death to a diluted culture was determined as described above.
# [4] = tested on: E. coli MC4100relA^+wt(WT) and MC4100relA^+ΔmazEF; experiment: Killing of E. coli cells by chemically synthesized EDF in combination with other antibiotic; assay type: cell-based; conditions: diluted culture
# Description: Killing of E. coli cells by chemically synthesized EDF in combination with other antibiotic: E. coli MC4100relA^+wt(WT) and MC4100relA^+ΔmazEF (ΔmazEF) were grown for 12 hours in M9 medium with shaking (160 rpm). Then, cells were diluted 1:100 in M9 medium and were grown with shaking (160 rpm) at 37° C. to a mid-logarithmic phase (OD600=0.6). Duplicate samples were removed from the cultures at a density of 2.5×10^8 (Dense), diluted in pre-heated M9 medium to the density of 3×10^4 (M9) or diluted in pre-heated M9 applied with different concentrations of EDF. The samples were incubated for 10 minutes at 37° C. without shaking Then rifampicin (10 μg/ml) was added and the cells were incubated for 10 minutes without shaking. The cells were centrifuged in 14000 rpm for 5 minutes and washed in pre-heated saline. Then, the cells were diluted, plated on LB plates and incubated at 37° C. for 12 hours. Cell killing was calculated by comparing the number of the colony-forming ability of cells treated by stressful conditions to those of the cells that were not exposed to the treatment.
# [5] = tested on: E. coli MC4100relA^+wt (WT) and MC4100relA^+ΔmazEF; experiment: Killing of E. coli cells by chemically synthesized EDF itself; assay type: cell-based; conditions: chemically synthesized EDF by itself (without antibiotic), 3 hours
# Description: Killing of E. coli cells by chemically synthesized EDF itself: E. coli MC4100relA^+wt (WT) and MC4100relA^+ΔmazEF (ΔmazEF) were grown for 12 hours in M9 medium with shaking (160 rpm). Then, cells were diluted 1:100 in M9 medium and were grown with shaking (160 rpm) at 37° C. to a mid-logarithmic phase (OD600=0.6). Samples were removed from the cultures at a density of 2.5×10^8 (Dense), centrifuged in 14000 rpm for 5 minutes and washed in pre-heated M9. The samples were applied with different concentrations of EDF, incubated for 3 hours at 37° C. without shaking. Then, cells were centrifuged in 14000 rpm for 5 minutes and washed in pre-heated saline. Then, the cells were diluted, plated on LB plates and incubated at 37° C. for 12 hours. Cell killing was calculated by comparing the number of the colony-forming ability of cells treated by stressful conditions to those of the cells that were not exposed to the treatment.
# [6] = tested on: MC4100relA^+; experiment: EDF response of recipient culture, strain MC4100relA^+; assay type: cell-based, E. coli; conditions: rifampicin 10 μg/ml
# Description: (§1) Comparison of EDF response in MC4100relA^+, K38, W3110, and MG1655 E. coli strains: Cultures of MC4100relA^+, K38, W3110, and MG1655 E. coli were grown as described in Example 1. When the cultures reached a density of 2.5×10^8 cells/ml, duplicate samples were removed and diluted to 3×10^4 cells/ml in pre-heated supernatant of a dense culture of MC4100relA^+(WT) which had been titrated to have an EDF concentration of either 1 unit/ml or 10 units/ml (quantified as described in Example 3). After incubation without shaking at 37° C. for 10 minutes, rifampicin (10 μg/ml) was added, and the culture was incubated without shaking at 37° C. for an additional 10 minutes. Cells were centrifuged in 14,000 rpm for 5 minutes and washed in pre-heated saline. Then, the cells were diluted, plated on LB plates, and incubated at 37° C. for 12 hours. Cell survival was calculated by comparing the colony-forming units (CFUs) of treated cells to those of untreated cells.
# [7] = tested on: K-38; experiment: EDF response of recipient culture, strain K-38; assay type: cell-based, E. coli; conditions: rifampicin 10 μg/ml
# Description: as §1
# [8] = tested on: MG1655; experiment: EDF response of recipient culture, strain MG1655; assay type: cell-based, E. coli; conditions: rifampicin 10 μg/ml
# Description: as §1
# [9] = tested on: W3110; experiment: EDF response of recipient culture, strain W3110; assay type: cell-based, E. coli; conditions: rifampicin 10 μg/ml
# Description: as §1
# [10] = tested on: E. Coli MC4100relA^+ cells, K38 cells and W3110; experiment: Chemically synthesized EDF restores mazEF mediated cell death to a dilute culture; assay type: cell-based; conditions: synthetic EDF 2.5 ng/ml
# Description: Chemically synthesized EDF restores mazEF mediated cell death to a dilute culture: E. Coli MC4100relA^+ cells, K38 cells and W3110 and ΔmazEF cells were grown as described in Example 1 herein above. At a density of 2.5×10^8 cells/ml, samples were either not diluted (dense) or diluted to 3×10^4 cells/ml in pre-warmed M9 medium (Diluted culture) or in a pre-warmed M9 applied with chemically synthesized EDF (2.5 ng/ml; diluted culture+EDF). For FIGS. 12A-C, samples were incubated with rifampicin as in FIG. 2A. For FIG. 13A, samples were incubated in trimethorpin (2 μg/ml) for 1 hour and for FIG. 13B samples were incubated in chlorapmphenicol (50 μg/ml) for 20 minutes.
# [11] = tested on: E. coli MC4100relA^+; experiment: E. coli mazEF-mediated cell death in the presence of synthesized wild type and mutated EDF; assay type: cell-based; conditions: 1 μg/ml of peptide; rifampicin 10 μg/ml, 10 minutes; diluted culture 3×10^4
# Description: E. coli mazEF-mediated cell death in the presence of synthesized wild type (WT) and mutated EDF. E. coli MC4100relA^+t(WT) and MC4100relA^+ΔmazEF (ΔmazEF) were grown for 12 hours in M9 medium with shaking (160 rpm). Then, cells were diluted 1:100 in M9 medium and were grown with shaking (160 rpm) at 37° C. to a mid-logarithmic phase (OD600=0.6). Duplicate samples were removed from the cultures at a density of 2.5×10^8 (Dense), diluted in pre-heated M9 medium to the density of 3×10^4 (M9) or diluted in pre-heated M9 applied with 1 μg/ml of one of the synthesized EDFs (SEQ ID NOs: 1-6). The samples were incubated for 10 minutes at 37° C. without shaking. Then rifampicin (10 μg/ml) was added and the cells were incubated for 10 minutes without shaking. The cells were centrifuged in 14000 rpm for 5 minutes and washed in pre-heated saline. Then, the cells were diluted, plated on LB plates and incubated at 37° C. for 12 hours. Cell killing was calculated by comparing the number of the colony-forming ability of cells treated by stressful conditions to those of the cells that were not exposed to the treatment.
# [12] = EDF 10 units/ml (titrated supernatant)
# [13] = EDF 1 units/ml (titrated supernatant)
substance,measurement,setting,value
"Asn-Asn-Trp-Asn-Asn (NNWNN; Chemically synthesized WT EDF) [linear pentapeptide NNWNN, extracellular death factor of E. coli; purified from supernatant and chemically synthesized]",sensitivity of EDF to pH,[1],sensitive
same,sensitivity of EDF to temperature,[2],sensitive
same,sensitivity of EDF to proteinase K,[3],sensitive
same,concentrations of EDF at which cell death is mazEF-independent,[4]; chemically synthesized EDF in conjunction with an antibiotic (rafamycin),over 500 ng/ml
same,concentrations of EDF at which cell death is mazEF-dependent,[4]; chemically synthesized EDF in conjunction with an antibiotic,1 to 500 ng/mL
same,concentrations of EDF at which cell death is mazEF-dependent,[5],1 to 10 µg/mL
same,concentrations of EDF at which cell death is mazEF-independent,[5],> 10 µg/mL
same,% Survival of recipient culture in response to added EDF,[6]; EDF 1 units/ml (titrated supernatant of dense MC4100relA^+ culture),8.0 ± 5.0%
same,% Survival of recipient culture in response to added EDF,[6]; [12],7.0 ± 2.0%
same,% Survival of recipient culture in response to added EDF,[7]; [13],17.0 ± 4.2%
same,% Survival of recipient culture in response to added EDF,[7]; [12],12.0 ± 6.6%
same,% Survival of recipient culture in response to added EDF,[8]; [13],77.8 ± 3.4%
same,% Survival of recipient culture in response to added EDF,[8]; [12],19.6 ± 4.5%
same,% Survival of recipient culture in response to added EDF,[9]; [13],15.0 ± 3.6%
same,% Survival of recipient culture in response to added EDF,[9]; [12],14.0 ± 2.3%
same,mazEF-mediated cell death in a diluted culture,"[10]; induced by chloramphenicol 50 μg/ml, 20 minutes",enhanced mazEF-mediated cell death
same,mazEF-mediated cell death in a diluted culture,"[10]; induced by rifampicin in different E. Coli strains (MC4100relA^+, K38, W3110)",enhanced mazEF-mediated cell death
same,mazEF-mediated cell death in a diluted culture,"[10]; induced by trimethoprim 2 μg/ml, 1 hour",enhanced mazEF-mediated cell death
same,% Cell killing following mazEF induction with rifampicin,[11],99.5%
